Our source for the IC50 values is patent US10590109B2, “Heterocyclic compounds used as FGFR inhibitors” (Nanjing InnoCare Pharma Tech Co., Ltd., priority 2016, dated 2020).

As usually defined, the IC50 is the concentration that inhibits the measured activity by half.

For experiment [1], the target named is human recombinant FGFR4 catalytic structural domain protein (Homo sapiens (Human), UniProt P22455). Kind of experiment: FGFR4 activity inhibition test (HTRF kinase assay). Type of experiment: biochemical. The conditions noted are these: 90 μM ATP.
Sequence of human recombinant FGFR4 catalytic structural domain protein (P22455 460-802): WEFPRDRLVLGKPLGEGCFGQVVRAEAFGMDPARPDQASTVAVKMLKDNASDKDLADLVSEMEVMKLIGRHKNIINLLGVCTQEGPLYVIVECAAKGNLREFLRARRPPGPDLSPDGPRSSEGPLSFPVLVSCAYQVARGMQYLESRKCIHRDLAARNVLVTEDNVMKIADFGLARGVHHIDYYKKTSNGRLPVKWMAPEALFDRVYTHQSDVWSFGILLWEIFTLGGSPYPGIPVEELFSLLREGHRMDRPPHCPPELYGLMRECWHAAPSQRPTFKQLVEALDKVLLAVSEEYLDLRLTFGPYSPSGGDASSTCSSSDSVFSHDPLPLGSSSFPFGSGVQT
Experiment [2] concerns the target human recombinant FGFR2 catalytic structural domain protein (Homo sapiens (Human), UniProt P21802). Kind of experiment: FGFR2 activity inhibition test (HTRF kinase assay). Type of experiment: biochemical. The conditions noted are these: 50 μM ATP. Here is the method: FGFR2 Activity Inhibition Test
The influence of the compound according to the present invention on the activity of fibroblast growth factor receptor 2 (FGFR2) was evaluated by an in vitro kinase assay experiment.
The experimental method is summarized as follows:
The in vitro activity of FGFR2 was determined by assaying the phosphorylation level of the substrate in the kinase reaction, by means of an HTRF kinase assay kit. The reaction buffer comprised the following components: 5-fold diluted Enzymatic buffer/kinase 5× (Cisbio, Catalog number 62EZBFDD) (main ingredient: 50 mM HEPES, pH 7.0), 5 mM MgCl2, 1 mM DTT; the human recombinant FGFR2 catalytic structural domain protein (amino acids 400-821) was commercially available from Beijing Sino Biological Inc., diluted with the reaction buffer to a 0.045 ng/μL kinase solution; the substrate reaction solution comprised a biotin labeled tyrosine kinase substrate diluted with the reaction buffer to 800 nM (Cisbio, catalog number 62TK0PEC), and 50 μM ATP, and the assay solution comprised an Eu^3+ labeled cage-shaped antibody (Cisbio, Catalog number 61T66KLB) diluted with the assay buffer (Cisbio, Catalog number 62SDBRDF) to 0.125 ng/μL, and 50 nM streptavidin labeled XL665 (Cisbio, Catalog number 610SAXLB).
The compound was dissolved and diluted in 100% DMSO to 100 μM, then 4-fold-series diluted with DMSO to a minimum concentration of 0.0061 μM, and each concentration point was then 40-fold diluted with the reaction buffer. If the IC50 value of the compound was very low, the initial concentration of the compound could be reduced.
4 μL of a compound solution and 2 μL of an FGFR2 kinase solution were added into a 384 well assay plate (Thermo, Catalog number 264706), mixed uniformly and then incubated for 15 min at room temperature; subsequently, 4 μL of the substrate reaction solution was added therein, and the reaction mixture was incubated for 60 min at room temperature; and then 10 μL of an assay solution of an equal volume to the reaction was added therein and mixed uniformly, followed by placement at room temperature. After 60 min, the enzyme reaction was terminated by EDTA in the assay solution, and the phosphorylated products were identified by both the Eu^3+ labeled cage-shaped antibody (donor) and the streptavidin labeled XL665 antibody (receptor) at the same time. After the excitation with laser, the donors and receptors that were close to each other experienced energy resonance transfer, and the energy transferred from the donor (620 nm) to the receptor (665 nm) could be detected with Envision. The ratio of 665/620 is in positive correlation to the phosphorylation degree of the substrate, thereby to detect the FGFR2 kinase activity. […] The inhibition percentage of the compound against FGFR2 activity could be calculated with the following formula: Inhibition percentage=100−100*(signalcompound−signalnegative control)/(signalpositive control−signalnegative control)
The IC50 value of the compound was calculated by the following formula, from 10 concentration points, with XLfit (ID Business Solutions Ltd., UK): Y=Bottom+(Top−Bottom)/(1+10^((Log IC50−X)*slope factor))
Where, Y is the inhibition percentage, Bottom is the bottom plateau of the curve (the bottom plateau of the S-type curve), Top is the top plateau of the curve (the top plateau of the S-type curve), and X is the log value of the compound concentration to be measured.
In general terms: In TR-FRET formats the signal depends on donor and acceptor labels being close together.

SMILES strings stand for the structures.

Sequence of human recombinant FGFR2 catalytic structural domain protein (P21802 400-821): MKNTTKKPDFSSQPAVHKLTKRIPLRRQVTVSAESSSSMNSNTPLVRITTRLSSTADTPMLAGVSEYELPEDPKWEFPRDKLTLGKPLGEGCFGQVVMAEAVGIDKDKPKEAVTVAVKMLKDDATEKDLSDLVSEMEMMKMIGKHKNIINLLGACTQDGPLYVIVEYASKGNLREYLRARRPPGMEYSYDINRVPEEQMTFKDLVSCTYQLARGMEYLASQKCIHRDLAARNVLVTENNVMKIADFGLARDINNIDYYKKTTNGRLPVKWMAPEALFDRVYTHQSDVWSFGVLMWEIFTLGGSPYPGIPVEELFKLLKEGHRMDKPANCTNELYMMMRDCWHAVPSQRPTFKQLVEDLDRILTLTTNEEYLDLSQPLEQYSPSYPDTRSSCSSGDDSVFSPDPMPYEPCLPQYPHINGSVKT

In the case of `COC[C@@H](C)Oc1cc(NC(=O)N(C)c2ccc(CN3CCOCC3=O)c(C=O)n2)ncc1C#N` [Compound 14, (R)-3-(5-cyano-4-((1-methoxyprop-2-yl)oxo)pyrid-2-yl)-1-(6-formyl-5-((3-carbonylmorpholino)methyl)pyrid-2-yl)-1-methylurea], the concentration for half-maximal inhibition (IC50) in experiment [1] is less than 10 nM; in experiment [2], more than 1000 nM.
